Broadly, the pKa is the negative logarithm of the acid dissociation constant. Low values mean a group that gives up its proton readily, high ones a group that holds its proton tightly.

The nature of data set [1]: pKa value was determined. Type of data set: physicochemical.
The target in data set [2] is Calcium-activated potassium channel subunit alpha-1 (Homo sapiens) (UniProt Q12791). Put plainly: Maxi-K opening activity on cloned human (hSlo) large- conductance (BK) Ca(2+)-activated K+ channel expressed in Xenopus laevis oocytes at concentration of 20 uM. Type of data set: functional, cell-based. The following applies: Oocyte.
Calcium-activated potassium channel subunit alpha-1 (Homo sapiens), sequence (Q12791 whole entry): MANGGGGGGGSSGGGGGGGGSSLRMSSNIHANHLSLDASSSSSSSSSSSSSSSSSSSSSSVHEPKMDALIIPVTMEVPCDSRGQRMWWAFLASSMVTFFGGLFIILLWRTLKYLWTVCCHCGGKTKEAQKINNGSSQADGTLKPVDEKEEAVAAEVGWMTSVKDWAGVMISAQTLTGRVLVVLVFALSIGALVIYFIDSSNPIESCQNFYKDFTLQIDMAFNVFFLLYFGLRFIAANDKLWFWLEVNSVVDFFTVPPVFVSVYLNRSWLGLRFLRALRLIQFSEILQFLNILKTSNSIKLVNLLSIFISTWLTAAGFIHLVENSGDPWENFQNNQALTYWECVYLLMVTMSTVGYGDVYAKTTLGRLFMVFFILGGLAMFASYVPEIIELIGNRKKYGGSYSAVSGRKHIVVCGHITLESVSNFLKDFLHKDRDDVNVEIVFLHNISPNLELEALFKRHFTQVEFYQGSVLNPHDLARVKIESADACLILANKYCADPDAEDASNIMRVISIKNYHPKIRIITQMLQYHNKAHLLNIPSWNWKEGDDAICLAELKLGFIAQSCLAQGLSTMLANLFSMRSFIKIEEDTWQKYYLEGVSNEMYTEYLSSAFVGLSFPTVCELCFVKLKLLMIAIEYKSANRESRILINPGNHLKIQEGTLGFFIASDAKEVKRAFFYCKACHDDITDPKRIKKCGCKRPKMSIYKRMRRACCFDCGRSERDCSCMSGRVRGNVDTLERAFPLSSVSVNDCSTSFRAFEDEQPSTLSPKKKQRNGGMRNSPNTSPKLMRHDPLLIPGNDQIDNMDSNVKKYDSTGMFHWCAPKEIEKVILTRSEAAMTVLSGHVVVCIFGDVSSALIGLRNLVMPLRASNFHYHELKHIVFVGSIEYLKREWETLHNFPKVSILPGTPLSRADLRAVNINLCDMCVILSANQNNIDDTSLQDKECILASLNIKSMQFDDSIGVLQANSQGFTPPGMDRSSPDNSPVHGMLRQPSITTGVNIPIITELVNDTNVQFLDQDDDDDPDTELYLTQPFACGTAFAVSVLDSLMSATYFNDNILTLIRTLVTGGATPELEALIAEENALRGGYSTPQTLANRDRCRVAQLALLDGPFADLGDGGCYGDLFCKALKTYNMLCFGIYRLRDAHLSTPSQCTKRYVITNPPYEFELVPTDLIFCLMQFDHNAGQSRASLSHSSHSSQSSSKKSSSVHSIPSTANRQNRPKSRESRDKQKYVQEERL

In the case of `Oc1c(Cl)cc(Cl)c(Cl)c1Cc1c(O)c(Cl)cc(Cl)c1Cl` [HEXACHLOROPHENE], the pKa in data set [1] was determined as 6.6. Also, the Control current in data set [2] came to 237%.
Taken in the same sequence, the figures for `Oc1ccc(Cl)cc1Cc1cc(Cl)ccc1O` [DICHLOROPHEN] were 9.3 and 74.3%.
The like results for `CCCc1ccc(O)c(-c2cc(CCC)ccc2O)c1` were, in that order, 9.3 and 95.9%.
Taken in the same sequence, the figures for `CN(C)Cc1cc(Cl)cc(Cc2cc(Cl)cc(CN(C)C)c2O)c1O` were 9.6 and 94.7%.
With `O=C(Nc1cc(Cl)ccc1O)Nc1cc(Cl)ccc1O`, in data set [1], the pKa stood at 8.9. Moreover, in data set [2], the Control current was 150%.
The like results for `Oc1ccc(Br)cc1-c1cc(Br)ccc1O` were, in that order, 8.6 and 97%.
Taken in the same sequence, the figures for `Oc1c(Cl)cccc1Cc1cccc(Cl)c1O` were 8.2 and 95.9%.
Taken in the same sequence, the figures for `Oc1c(Cl)cc(Cl)cc1Sc1cc(Cl)cc(Cl)c1O` [BITHIONOL] were 6.3 and 199%.
In data set [1], `Oc1c(Br)cc(Br)cc1-c1cc(Br)cc(Br)c1O` [BROMOPHENE] displayed a pKa of 6.7. The Control current in data set [2] is 264%.
In data set [1], `Oc1c(Cl)cc(Cl)cc1Cc1cc(Cl)cc(Cl)c1O` had a pKa of 7.7. Moreover, the Control current in data set [2] is 245%.
Taken in the same sequence, the figures for `O=c1[nH]c2cc(C(F)(F)F)ccc2n1-c1cc(Cl)ccc1O` were 9.6 and 132%.
With `O=C(Nc1cccc(C(F)(F)F)c1)Nc1cc(Cl)ccc1O`, the pKa in data set [1] came out at 9.3. Also, the Control current in data set [2] came to 124%.
Taken in the same sequence, the figures for `Oc1ccc(F)cc1Cc1cc(F)ccc1O` were 9.7 and 83.2%.
The like results for `O=C(Nc1cc(Cl)cc(Cl)c1O)Nc1cc(Cl)cc(Cl)c1O` were, in that order, 7.4 and 196%.
In the case of `Oc1ccc(F)cc1Sc1cc(F)ccc1O`, the pKa in data set [1] worked out at 8.4. Further, the Control current in data set [2] came to 98.8%.
